Among the targets are Myosin-14 (Homo sapiens, UniProt Q7Z406); Aurora kinase B (Homo sapiens, UniProt Q96GD4); Obg-like ATPase 1 (Homo sapiens, UniProt Q9NTK5).
The target of assay [1] is Protein-tyrosine kinase 2-beta (Homo sapiens, UniProt Q14289).
Assay [2] concerns the target Serine/threonine-protein kinase PAK 4 (Homo sapiens, UniProt O96013).
For assay [3], the target named is T1, Serine/threonine-protein kinase STK11 (Homo sapiens, UniProt Q15831).
T1 sequence (Q15831 whole entry): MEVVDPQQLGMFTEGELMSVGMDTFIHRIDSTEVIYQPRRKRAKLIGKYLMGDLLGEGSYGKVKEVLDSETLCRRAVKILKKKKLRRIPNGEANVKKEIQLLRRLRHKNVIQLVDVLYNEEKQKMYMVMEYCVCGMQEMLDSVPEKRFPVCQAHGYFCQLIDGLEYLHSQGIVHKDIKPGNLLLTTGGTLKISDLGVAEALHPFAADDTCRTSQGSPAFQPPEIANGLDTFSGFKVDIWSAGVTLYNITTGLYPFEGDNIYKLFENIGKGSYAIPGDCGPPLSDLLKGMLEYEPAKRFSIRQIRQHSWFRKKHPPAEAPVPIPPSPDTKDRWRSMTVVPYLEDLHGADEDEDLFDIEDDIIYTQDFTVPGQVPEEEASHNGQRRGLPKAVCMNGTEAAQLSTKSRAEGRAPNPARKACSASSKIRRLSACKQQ

The target in assay [4] is T2, Ribosyldihydronicotinamide dehydrogenase [quinone] (Homo sapiens, UniProt P16083).
T2 sequence (P16083 whole entry): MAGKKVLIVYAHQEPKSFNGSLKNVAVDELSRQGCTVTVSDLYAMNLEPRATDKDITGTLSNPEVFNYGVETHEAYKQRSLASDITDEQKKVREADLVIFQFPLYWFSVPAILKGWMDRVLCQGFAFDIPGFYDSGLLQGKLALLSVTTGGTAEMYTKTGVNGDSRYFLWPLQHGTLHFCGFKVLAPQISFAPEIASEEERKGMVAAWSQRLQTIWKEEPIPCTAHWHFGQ

Assay [5] addresses T3, Mitogen-activated protein kinase kinase kinase kinase 2 (Homo sapiens, UniProt Q12851).
T3 sequence (Q12851 whole entry): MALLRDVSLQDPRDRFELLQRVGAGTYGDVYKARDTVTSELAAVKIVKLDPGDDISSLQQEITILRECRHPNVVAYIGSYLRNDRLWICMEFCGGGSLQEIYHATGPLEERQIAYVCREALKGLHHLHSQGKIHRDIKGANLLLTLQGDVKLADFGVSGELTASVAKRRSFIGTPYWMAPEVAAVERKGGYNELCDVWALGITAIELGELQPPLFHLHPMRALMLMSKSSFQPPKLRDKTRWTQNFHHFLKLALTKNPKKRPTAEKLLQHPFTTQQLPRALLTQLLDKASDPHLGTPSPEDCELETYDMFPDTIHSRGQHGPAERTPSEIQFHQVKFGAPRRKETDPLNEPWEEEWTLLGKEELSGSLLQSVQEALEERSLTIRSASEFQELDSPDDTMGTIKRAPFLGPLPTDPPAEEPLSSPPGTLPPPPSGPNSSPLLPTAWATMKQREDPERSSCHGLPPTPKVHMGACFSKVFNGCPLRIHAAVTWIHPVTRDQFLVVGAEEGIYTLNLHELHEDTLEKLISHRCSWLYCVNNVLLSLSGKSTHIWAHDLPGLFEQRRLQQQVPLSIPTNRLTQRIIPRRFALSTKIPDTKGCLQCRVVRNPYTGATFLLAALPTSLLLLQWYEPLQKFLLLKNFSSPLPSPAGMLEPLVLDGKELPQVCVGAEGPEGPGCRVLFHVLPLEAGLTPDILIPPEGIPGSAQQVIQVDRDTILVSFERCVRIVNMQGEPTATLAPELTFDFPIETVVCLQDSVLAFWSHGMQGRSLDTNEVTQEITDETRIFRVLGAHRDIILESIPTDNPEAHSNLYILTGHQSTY

Assay [6] has as its target 26S proteasome regulatory subunit 6B (Homo sapiens, UniProt P43686).
Assay [7] deals with Mitogen-activated protein kinase 3 (Homo sapiens, UniProt P27361).
The target of assay [8] is NADH dehydrogenase [ubiquinone] 1 alpha subcomplex subunit 13 (Homo sapiens, UniProt Q9P0J0).
Assay [9] concerns the target T4, Serine/threonine-protein kinase NLK (Homo sapiens, UniProt Q9UBE8).
T4 sequence (Q9UBE8 whole entry): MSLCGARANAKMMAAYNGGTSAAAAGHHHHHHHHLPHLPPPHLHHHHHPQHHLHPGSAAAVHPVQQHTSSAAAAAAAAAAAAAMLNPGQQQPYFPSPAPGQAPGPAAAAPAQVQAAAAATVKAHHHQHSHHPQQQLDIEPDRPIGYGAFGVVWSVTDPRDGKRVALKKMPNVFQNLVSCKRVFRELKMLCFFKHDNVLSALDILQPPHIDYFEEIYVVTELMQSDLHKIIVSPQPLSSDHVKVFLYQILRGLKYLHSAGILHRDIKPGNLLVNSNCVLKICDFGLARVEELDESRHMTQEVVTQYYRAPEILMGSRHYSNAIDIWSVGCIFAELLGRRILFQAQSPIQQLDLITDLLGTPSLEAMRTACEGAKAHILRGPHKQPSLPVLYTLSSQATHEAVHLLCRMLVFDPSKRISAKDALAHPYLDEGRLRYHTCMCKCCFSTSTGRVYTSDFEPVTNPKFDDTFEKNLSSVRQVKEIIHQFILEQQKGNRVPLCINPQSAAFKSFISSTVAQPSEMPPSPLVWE

Assay [10] deals with DnaJ homolog subfamily A member 1 (Homo sapiens, UniProt P31689).
Assay [11] has as its target Serine/threonine-protein kinase MRCK gamma (Homo sapiens, UniProt Q6DT37).
Assay [12] addresses DNA topoisomerase 2-alpha (Homo sapiens, UniProt P11388).

Each structure is given as a SMILES string. Counter-ions that a name gives are not always drawn. The source made the active and inactive calls. Where only a bound is given, the exact number is not on record here.
Also: in the data inactive means no Kd found up to 30 µM.

Sequence of Obg-like ATPase 1 (Q9NTK5 whole entry, looked up): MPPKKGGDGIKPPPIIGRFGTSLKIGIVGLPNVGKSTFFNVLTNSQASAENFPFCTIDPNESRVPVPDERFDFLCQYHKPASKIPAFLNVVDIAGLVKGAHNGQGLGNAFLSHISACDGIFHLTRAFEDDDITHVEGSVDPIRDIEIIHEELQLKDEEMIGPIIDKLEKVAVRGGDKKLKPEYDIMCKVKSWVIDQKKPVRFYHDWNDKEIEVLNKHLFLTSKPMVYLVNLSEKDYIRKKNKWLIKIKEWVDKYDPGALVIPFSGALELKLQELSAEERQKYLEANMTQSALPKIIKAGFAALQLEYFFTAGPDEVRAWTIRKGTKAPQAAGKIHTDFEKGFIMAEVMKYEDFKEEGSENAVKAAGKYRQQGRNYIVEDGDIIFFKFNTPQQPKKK
Sequence of 26S proteasome regulatory subunit 6B (P43686 whole entry): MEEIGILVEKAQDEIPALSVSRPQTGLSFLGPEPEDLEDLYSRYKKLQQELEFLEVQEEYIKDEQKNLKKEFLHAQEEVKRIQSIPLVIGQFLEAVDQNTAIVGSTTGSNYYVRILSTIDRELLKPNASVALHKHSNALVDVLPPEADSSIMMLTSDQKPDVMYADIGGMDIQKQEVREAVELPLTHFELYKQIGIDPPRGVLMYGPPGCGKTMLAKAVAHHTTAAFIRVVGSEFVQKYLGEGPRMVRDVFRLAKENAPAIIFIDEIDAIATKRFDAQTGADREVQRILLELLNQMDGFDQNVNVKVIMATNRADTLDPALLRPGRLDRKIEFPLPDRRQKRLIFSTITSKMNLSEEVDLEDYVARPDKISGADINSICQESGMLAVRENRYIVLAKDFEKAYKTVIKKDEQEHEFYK
Sequence of Serine/threonine-protein kinase MRCK gamma (Q6DT37 whole entry): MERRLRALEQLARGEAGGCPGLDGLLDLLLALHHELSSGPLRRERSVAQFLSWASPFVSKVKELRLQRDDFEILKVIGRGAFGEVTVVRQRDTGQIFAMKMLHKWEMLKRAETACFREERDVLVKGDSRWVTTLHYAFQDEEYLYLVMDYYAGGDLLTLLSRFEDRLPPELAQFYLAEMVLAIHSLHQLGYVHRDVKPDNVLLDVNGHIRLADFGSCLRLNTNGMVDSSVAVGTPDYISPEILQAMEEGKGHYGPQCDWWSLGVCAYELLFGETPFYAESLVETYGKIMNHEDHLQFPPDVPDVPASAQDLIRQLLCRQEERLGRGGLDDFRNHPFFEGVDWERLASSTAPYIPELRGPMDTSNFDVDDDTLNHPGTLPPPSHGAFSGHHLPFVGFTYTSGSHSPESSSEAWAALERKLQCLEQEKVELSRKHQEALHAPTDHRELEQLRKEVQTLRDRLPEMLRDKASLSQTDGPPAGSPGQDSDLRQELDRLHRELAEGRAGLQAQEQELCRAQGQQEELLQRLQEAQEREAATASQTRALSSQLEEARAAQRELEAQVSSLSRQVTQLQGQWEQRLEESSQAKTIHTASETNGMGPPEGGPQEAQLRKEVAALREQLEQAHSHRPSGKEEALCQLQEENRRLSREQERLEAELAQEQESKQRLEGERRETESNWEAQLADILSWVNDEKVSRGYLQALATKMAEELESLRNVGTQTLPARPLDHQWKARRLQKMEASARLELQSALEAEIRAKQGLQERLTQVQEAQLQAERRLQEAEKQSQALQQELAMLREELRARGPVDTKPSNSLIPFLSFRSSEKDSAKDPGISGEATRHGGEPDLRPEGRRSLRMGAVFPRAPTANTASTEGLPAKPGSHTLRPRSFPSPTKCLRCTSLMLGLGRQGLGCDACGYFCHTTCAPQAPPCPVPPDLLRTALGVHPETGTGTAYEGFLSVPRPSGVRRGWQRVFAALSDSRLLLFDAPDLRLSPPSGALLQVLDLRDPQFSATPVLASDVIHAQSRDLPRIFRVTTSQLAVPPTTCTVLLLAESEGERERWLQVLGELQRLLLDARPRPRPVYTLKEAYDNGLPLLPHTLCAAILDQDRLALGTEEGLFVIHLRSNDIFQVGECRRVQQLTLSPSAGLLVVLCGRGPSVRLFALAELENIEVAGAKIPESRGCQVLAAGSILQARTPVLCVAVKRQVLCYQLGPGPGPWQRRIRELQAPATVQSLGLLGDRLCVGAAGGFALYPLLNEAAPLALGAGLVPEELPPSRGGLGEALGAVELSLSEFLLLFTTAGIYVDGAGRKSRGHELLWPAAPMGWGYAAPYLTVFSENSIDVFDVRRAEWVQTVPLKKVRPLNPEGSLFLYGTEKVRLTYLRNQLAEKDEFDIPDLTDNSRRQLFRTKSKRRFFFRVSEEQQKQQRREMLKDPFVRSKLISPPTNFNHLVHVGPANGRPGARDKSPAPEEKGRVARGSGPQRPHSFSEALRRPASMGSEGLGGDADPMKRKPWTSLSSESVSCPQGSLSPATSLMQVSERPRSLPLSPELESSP
Sequence of NADH dehydrogenase [ubiquinone] 1 alpha subcomplex subunit 13 (Q9P0J0 whole entry, one chain of several): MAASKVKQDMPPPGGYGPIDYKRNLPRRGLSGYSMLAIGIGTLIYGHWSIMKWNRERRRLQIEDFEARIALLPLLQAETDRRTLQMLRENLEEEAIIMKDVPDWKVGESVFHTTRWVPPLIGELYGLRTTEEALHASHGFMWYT
Sequence of DNA topoisomerase 2-alpha (P11388 whole entry): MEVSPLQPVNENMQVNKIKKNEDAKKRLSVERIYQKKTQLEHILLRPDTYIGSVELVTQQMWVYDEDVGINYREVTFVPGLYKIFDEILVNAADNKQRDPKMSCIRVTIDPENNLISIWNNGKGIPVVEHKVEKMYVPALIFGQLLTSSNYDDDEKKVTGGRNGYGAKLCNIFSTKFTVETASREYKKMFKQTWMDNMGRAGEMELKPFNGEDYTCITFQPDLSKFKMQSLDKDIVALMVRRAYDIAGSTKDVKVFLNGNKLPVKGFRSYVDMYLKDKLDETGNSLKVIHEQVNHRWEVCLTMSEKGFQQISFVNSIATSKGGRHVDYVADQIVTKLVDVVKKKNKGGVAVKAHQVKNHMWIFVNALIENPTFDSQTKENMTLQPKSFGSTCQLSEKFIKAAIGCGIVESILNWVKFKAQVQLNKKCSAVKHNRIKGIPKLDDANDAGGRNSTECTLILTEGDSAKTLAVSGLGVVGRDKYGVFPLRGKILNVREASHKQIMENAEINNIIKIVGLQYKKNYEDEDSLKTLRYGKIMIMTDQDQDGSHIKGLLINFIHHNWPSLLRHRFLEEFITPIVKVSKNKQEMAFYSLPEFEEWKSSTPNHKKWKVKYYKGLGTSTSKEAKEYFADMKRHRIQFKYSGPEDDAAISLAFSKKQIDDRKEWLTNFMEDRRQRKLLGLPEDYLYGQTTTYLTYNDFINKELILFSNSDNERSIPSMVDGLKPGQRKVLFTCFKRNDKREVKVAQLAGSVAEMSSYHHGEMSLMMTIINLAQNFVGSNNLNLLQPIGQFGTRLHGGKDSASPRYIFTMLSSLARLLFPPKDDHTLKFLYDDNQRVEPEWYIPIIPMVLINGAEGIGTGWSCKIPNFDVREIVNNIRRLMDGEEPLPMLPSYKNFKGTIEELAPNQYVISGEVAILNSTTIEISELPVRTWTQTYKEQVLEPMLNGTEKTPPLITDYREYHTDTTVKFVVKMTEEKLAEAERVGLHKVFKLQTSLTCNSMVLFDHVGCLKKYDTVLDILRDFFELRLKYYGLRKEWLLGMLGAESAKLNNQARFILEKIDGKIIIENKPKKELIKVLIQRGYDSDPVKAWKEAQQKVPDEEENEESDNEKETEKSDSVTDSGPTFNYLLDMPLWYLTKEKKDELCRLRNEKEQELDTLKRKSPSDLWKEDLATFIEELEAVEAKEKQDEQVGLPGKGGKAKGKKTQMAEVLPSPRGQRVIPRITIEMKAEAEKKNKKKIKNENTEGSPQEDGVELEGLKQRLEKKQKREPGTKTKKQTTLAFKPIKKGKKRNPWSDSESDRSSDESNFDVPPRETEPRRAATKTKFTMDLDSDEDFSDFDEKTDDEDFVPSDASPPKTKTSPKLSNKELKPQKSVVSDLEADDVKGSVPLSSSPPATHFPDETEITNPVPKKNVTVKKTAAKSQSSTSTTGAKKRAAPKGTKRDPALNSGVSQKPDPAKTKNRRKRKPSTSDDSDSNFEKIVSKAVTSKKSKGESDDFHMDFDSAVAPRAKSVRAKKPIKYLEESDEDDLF
Sequence of Serine/threonine-protein kinase PAK 4 (O96013 whole entry): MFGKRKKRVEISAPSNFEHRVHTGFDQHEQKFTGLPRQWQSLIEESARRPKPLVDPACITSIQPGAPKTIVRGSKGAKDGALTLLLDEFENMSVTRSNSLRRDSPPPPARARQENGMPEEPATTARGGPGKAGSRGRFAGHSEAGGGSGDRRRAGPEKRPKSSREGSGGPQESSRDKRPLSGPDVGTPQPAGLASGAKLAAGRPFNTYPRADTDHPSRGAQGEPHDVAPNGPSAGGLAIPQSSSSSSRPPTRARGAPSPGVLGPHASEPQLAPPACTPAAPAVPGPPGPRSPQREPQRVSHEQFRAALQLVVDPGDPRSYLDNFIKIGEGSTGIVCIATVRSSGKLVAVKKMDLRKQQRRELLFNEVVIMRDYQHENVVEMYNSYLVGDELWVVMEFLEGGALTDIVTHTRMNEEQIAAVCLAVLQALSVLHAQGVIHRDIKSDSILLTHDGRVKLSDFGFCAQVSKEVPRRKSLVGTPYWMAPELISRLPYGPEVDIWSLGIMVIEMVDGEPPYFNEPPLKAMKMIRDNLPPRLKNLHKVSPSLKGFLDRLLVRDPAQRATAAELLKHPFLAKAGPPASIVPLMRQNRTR
Sequence of DnaJ homolog subfamily A member 1 (P31689 whole entry): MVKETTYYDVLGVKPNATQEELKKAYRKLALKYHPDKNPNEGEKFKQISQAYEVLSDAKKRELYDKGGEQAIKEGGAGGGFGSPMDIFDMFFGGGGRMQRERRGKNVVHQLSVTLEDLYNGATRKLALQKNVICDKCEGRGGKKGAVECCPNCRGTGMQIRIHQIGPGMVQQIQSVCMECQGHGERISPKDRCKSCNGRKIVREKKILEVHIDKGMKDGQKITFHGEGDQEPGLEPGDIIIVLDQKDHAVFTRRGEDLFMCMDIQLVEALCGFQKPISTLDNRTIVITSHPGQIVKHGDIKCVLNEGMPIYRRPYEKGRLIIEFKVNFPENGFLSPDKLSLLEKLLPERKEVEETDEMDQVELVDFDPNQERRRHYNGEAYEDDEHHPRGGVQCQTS

On to `C[C@H]1CNCCCN1S(=O)(=O)c1cccc2cncc(F)c12`, for which the Kd in [1] is > 30 µM (inactive); in assay [2], > 30 µM (inactive); in [3] it was > 30 µM (inactive); on Myosin-14, > 30 µM (inactive); in assay [4], 3.7 µM (active); in [5], > 30 µM (inactive). The Kd was > 30 µM (inactive) in [6]; > 30 µM (inactive) in [7]; > 30 µM (inactive) in assay [8]; 1.15 µM (active) at Aurora kinase B; > 30 µM (inactive) in assay [9]; > 30 µM (inactive) in assay [10]. Moreover, in [11], the Kd is > 30 µM (inactive).
In the case of `CC(=O)c1cnc2ccc(-c3cc(Cl)c(O)c(Cl)c3)nc2c1N[C@H]1CC[C@H](CN(C)C)CC1`, the Kd in assay [1] was 0.03 µM (active); in assay [2], 0.515 µM (active); in [3] it was > 30 µM (inactive); on Myosin-14, > 30 µM (inactive); in assay [4] it was > 30 µM (inactive); in assay [6], > 30 µM (inactive). In addition, the Kd is > 30 µM (inactive) in [7]; > 30 µM (inactive) in assay [8]; 0.126 µM (active) on Aurora kinase B; 0.024 µM (active) in assay [9]; > 30 µM (inactive) on Obg-like ATPase 1; > 30 µM (inactive) in assay [10]. Moreover, the values for the Kd in assay [11] and in assay [12] were 0.063 µM and > 30 µM (inactive), respectively.
As for `Cc1csc(-c2nnc(Nc3ccc(Oc4ncccc4-c4ccnc(N)n4)cc3)c3ccccc23)c1` [AMG-900], the Kd in assay [1] was > 30 µM (inactive); in [2], > 30 µM (inactive); at Myosin-14, > 30 µM (inactive); in assay [4], 3.35 µM (active); in assay [5], 0.186 µM (active); in [6] it was > 30 µM (inactive). Besides, the Kd is > 30 µM (inactive) in assay [7]; 0.02 µM (active) on Aurora kinase B; > 30 µM (inactive) in assay [9]; > 30 µM (inactive) at Obg-like ATPase 1; > 30 µM (inactive) in [10]; > 30 µM (inactive) in assay [11]. Besides, in [12], the Kd is > 30 µM (inactive).
As for `CCS(=O)(=O)N1CCN(c2ccc(Nc3ncc(C(N)=O)c(NC4CC4)n3)cc2)CC1` [Cerdulatinib Hydrochloride], the Kd was > 30 µM (inactive) in assay [1]; 0.851 µM (active) in [2]; > 30 µM (inactive) in assay [3]; > 30 µM (inactive) in [4]; > 30 µM (inactive) in assay [5]; > 30 µM (inactive) in assay [6]. Besides, the Kd in [7] was > 30 µM (inactive); in [8], > 30 µM (inactive); at Aurora kinase B, 3.79 µM (active); in [9] it was > 30 µM (inactive); in assay [10], > 30 µM (inactive); in assay [11], > 30 µM (inactive). In assay [12], the Kd is > 30 µM (inactive).
`Cn1cc(C2=C(c3cn(C4CCN(Cc5ccccn5)CC4)c4ccccc34)C(=O)NC2=O)c2ccccc21` [ENZASTAURIN]: the Kd (on Myosin-14; in assay [4]; in [6]; in [8]; in assay [10]) was > 30 µM (inactive) each time.
For `O=C(Nc1nc2cccc(-c3ccc(CN4CCS(=O)(=O)CC4)cc3)n2n1)C1CC1` [FILGOTINIB], the Kd (in assay [1]; in assay [2]; in assay [3]; on Myosin-14; in assay [4]; in assay [5]) was > 30 µM (inactive) in each case. Further, the Kd (in [6]; in assay [7]; in assay [8]; on Aurora kinase B; in assay [9]; at Obg-like ATPase 1) was > 30 µM (inactive) in each case. Further, the Kd in assay [10] and in [11] was > 30 µM (inactive) each time.
With `Cc1[nH]c(/C=C2\C(=O)Nc3ccccc32)c(C)c1CCC(=O)O` [ORANTINIB], the Kd (on Myosin-14; in assay [4]; in assay [6]; in assay [7]; in assay [8]; in assay [9]) was > 30 µM (inactive) each time. For the same compound, the Kd in assay [10], in assay [11] and in assay [12] was > 30 µM (inactive) in each case.
As to `CCCCCCCCCCCCCCCCCCOP(=O)([O-])OC1CC[N+](C)(C)CC1` [PERIFOSINE], the Kd (in assay [1]; in assay [2]; in [3]; at Myosin-14; in assay [4]; in assay [5]) was > 30 µM (inactive) throughout. Moreover, the Kd (in assay [6]; in assay [7]; in assay [8]; at Aurora kinase B; in assay [9]; on Obg-like ATPase 1) was > 30 µM (inactive) throughout. For the same compound, the Kd in assay [10] is > 30 µM (inactive).
As to `Cc1nc(Nc2n[nH]c3c2CN(C(=O)N[C@H](CN(C)C)c2ccccc2)C3(C)C)c2sccc2n1` [PF-03758309], the Kd in assay [1] was 1.4 µM (active); in [3], 0.434 µM (active); at Myosin-14 it was > 30 µM (inactive); in assay [4] it was > 30 µM (inactive); in [5] it was > 30 µM (inactive); in assay [6], > 30 µM (inactive). In addition, the Kd in assay [7] is 3.87 µM (active); in assay [8] it was > 30 µM (inactive); on Aurora kinase B, 2.08 µM (active); in assay [9], > 30 µM (inactive); on Obg-like ATPase 1 it was > 30 µM (inactive); in assay [10], > 30 µM (inactive). The Kd in assay [11] and in assay [12] was > 30 µM (inactive) in each case.
For the compound `N#CC[C@H](C1CCCC1)n1cc(-c2ncnc3[nH]ccc23)cn1` [RUXOLITINIB], the Kd (on Myosin-14; in [4]; in [6]; in assay [8]; in assay [10]) was > 30 µM (inactive) in each case.
